Where a name gives a salt, the structure may show the parent alone. Read-outs that look alike come from different tables or passages of the source. One block for each compound: values may come before it.
Assays:
Type in all cases: physicochemical
[1] = Solid form analysis of salt batches (XRPD, DSC, TGA, GVS)
Excerpt: Initial studies into compound I involved analysis of the hydrochloride salt. It was found as summarised in Table 1 below, that the initially prepared hydrochloride salt produces an inconsistent solid form with significant variability in the DSC, TGA, GVS and XRPD pattern (see FIGS. 1 to 16).
The samples of both hydrochloride (comparative) and citrate salts were subjected to X-ray diffraction to determine the characteristic X-ray diffraction pattern. The conditions used were as follows: X-Ray Powder Diffraction patterns were collected on a Siemens D5000 diffractometer using Cu Kα radiation (40 kV, 40 mA), θ-θ goniometer, divergence of V20 and receiving slits, a graphite secondary monochromator and a scintillation counter. The instrument is performance checked using a certified Corundum standard (NIST 1976).
Samples run under ambient conditions were prepared as flat plate specimens using powder as received. Approximately 35 mg of the sample was gently packed into a cavity cut into polished, zero-background (510) silicon wafer. The sample was rotated in its own plane during analysis. The details of the data collection are: • Angular range: 2 to 42°2θ • Step size: 0.05°2θ • Collection time: 4 s·step^1.
Alternatively, X-Ray Powder Diffraction patterns were collected on a Bruker AXS C2 GADDS diffractometer using Cu Kα radiation (40 kV, 40 mA), automated XYZ stage, laser video microscope for auto-sample positioning and a HiStar 2-dimensional area detector. X-ray optics consists of a single Gabel multilayer mirror coupled with a pinhole collimator of 0.3 mm. The beam divergence, i.e. the effective size of the X-ray beam on the sample, was approximately 4 mm. A θ-θ continuous scan mode was employed with a sample-detector distance of 20 cm which gives an effective 2θ range of 3.2°-29.7°. Typically the sample would be exposed to the X-ray beam for 120 seconds.
Samples run under ambient conditions were prepared as flat plate specimens using powder as received without grinding. Approximately 1-2 mg of the sample was lightly pressed on a glass slide to obtain a flat surface.

[2] = Thermal gravimetric analysis (TGA); conditions: for TGA weight loss before degradation / melt with decomposition: result in words
Procedure: The samples of both hydrochloride (comparative) and citrate salts were subjected to thermal gravimetric analysis and differential scanning calorimetry under the following conditions. DSC data were collected on a TA Instruments Q2000 equipped with a 50 position auto-sampler. The instrument was calibrated for energy and temperature calibration using certified indium. Typically 0.5-3 mg of each sample, in a pin-holed aluminium pan, was heated at 10° C.·min^−1 from 25° C. to 270° C.
TGA data were collected on a TA Instruments Q500 TGA, equipped with a 16 position auto-sampler. The instrument was temperature calibrated using certified Alumel. Typically 5-30 mg of each sample was loaded onto a pre-tared platinum crucible and aluminium DSC pan, and was heated at 10° C.·min^−1 from ambient temperature to 300° C. A nitrogen purge at 60 ml·min^−1 was maintained over the sample. The instrument control software was Thermal Advantage v4.6.6 and the data were analysed using Universal Analysis v4.3A. Alternatively, TGA data were collected on a Mettler TGA/SDTA 851e equipped with a 34 position auto-sampler. The instrument was temperature calibrated using certified indium. Typically 5-30 mg to of each sample was loaded onto a pre-weighed aluminium crucible and was heated at 10° C.·min^−1 from ambient temperature to 300° C. A nitrogen purge at 50 ml·min^−1 was maintained over the sample. The instrument control and data analysis software was STARe v9.01.

[3] = Gravimetric Vapour Sorption (GVS) with post-GVS XRPD; conditions: for GVS mass lost on going to dryness: from 90% RH to dryness; for solid form / XRPD pattern post GVS compared with before: XRPD after GVS experiment; for GVS mass gain: from 40% RH to 90% RH
[4] = Stress tests at elevated temperature and humidity, analysed by XRPD
Procedure: The group three material was stressed under conditions which might cause it is to convert to group one material or, indeed, another hydrated or polymorphic form. Thus samples were stored at 40° C./75% RH and also at 60° C./96% RH and analysed at regular intervals by XRPD.
The stability of the citrate salt group A material was tested in harsher conditions, when the samples were kept for a week in a humidity chamber at 60° C. and 96% RH.

[5] = Maturation of citrate salt in 27 solvents, solids analysed by XRPD
Procedure: In order to determine the propensity of polymorphism for the citrate salt the group A material was maturated in 27 different solvents. A small amount of solid was slurried with the corresponding solvent (see Table 4 below) and stored in the incubator and subjected to 4 h-heat/cool cycles at 50° C./r.t. for 24 h. The solvents were then removed under vacuum, and the remaining solids analysed by XRPD.

[6] = Variable temperature X-ray diffraction
Procedure: Samples run under non-ambient conditions were mounted on a silicon wafer with heat-conducting compound. The sample was then heated to the appropriate temperature at ca. 10° C.·min^−1 and subsequently held isothermally for ca 2 minutes before data collection was initiated.
In order to probe the stability of the samples of the citrate salts variable temperature X-ray diffraction was carried out. Thus, the salts were scanned under X-ray diffraction conditions at a series of temperatures and the characteristic peaks determined.

Karl-Fischer analysis = assay: Karl-Fischer analysis
[7] = hydrochloride salt batches, hydrochloride

Compound: C1=CCOCc2cc(ccc2OCCN2CCCC2)Nc2nccc(n2)-c2cccc(c2)COC1.Cl [Batch HCl 2, 11-(2-pyrrolidin-1-yl-ethoxy)-14,19-dioxa-5,7,26-triaza-tetracyclo[19.3.1.1(2,6).1(8,12)]heptacosa-1(25),2(26),3,5,8,10,12(27),16,21,23-decaene hydrochloride]
Solid Form Comment [1, 7]: Predominately Group 1 | decomposition / degradation temperature in TGA [2]: 260 °C | water lost in the first phase of the TGA ([2]; hydrochloride): 5.6% | equivalents of water corresponding to TGA weight loss ([2]; hydrochloride): 1.67 equivalents of water

Compound: C1=CCOCc2cc(ccc2OCCN2CCCC2)Nc2nccc(n2)-c2cccc(c2)COC1.Cl [Batch HCl 1, 11-(2-pyrrolidin-1-yl-ethoxy)-14,19-dioxa-5,7,26-triaza-tetracyclo[19.3.1.1(2,6).1(8,12)]heptacosa-1(25),2(26),3,5,8,10,12(27),16,21,23-decaene hydrochloride]
Solid Form Comment [1, 7]: Group 1 + 3 + amorphous | equivalents of water corresponding to TGA weight loss ([2]; hydrochloride): 1.4 equivalents of water | TGA two stage weight loss, total ([2]; up to 100° C.): 4.5% | GVS adsorption of water in the initial adsorption cycle ([3]; at 90% RH): 5.5% | GVS mass lost on going to dryness ([3]; hydrochloride): 5% | GVS mass regained ([3]; from dryness to 40% RH): 2% | GVS total gain ([3]; whole GVS cycle): 2%

Compound: C1=CCOCc2cc(ccc2OCCN2CCCC2)Nc2nccc(n2)-c2cccc(c2)COC1.Cl [group 3 hydrochloride, 11-(2-pyrrolidin-1-yl-ethoxy)-14,19-dioxa-5,7,26-triaza-tetracyclo[19.3.1.1(2,6).1(8,12)]heptacosa-1(25),2(26),3,5,8,10,12(27),16,21,23-decaene hydrochloride]
solid form by XRPD after stress (Comment) ([4]; 40° C./75% RH, 0 hrs): Group three | solid form by XRPD after stress (Comment) ([4]; 40° C./75% RH, 24 hrs): Group three | solid form by XRPD after stress (Comment) ([4]; 40° C./75% RH, 48 hrs): Group three | solid form by XRPD after stress (Comment) ([4]; 40° C./75% RH, 72 hrs): Group one | solid form by XRPD after stress (Comment) ([4]; 60° C./96% RH, 0 hrs): Group three | solid form by XRPD after stress (Comment) ([4]; 60° C./96% RH, 24 hrs): Group one

Compound: C1=CCOCc2cc(ccc2OCCN2CCCC2)Nc2nccc(n2)-c2cccc(c2)COC1.Cl [Batch HCl 6, 11-(2-pyrrolidin-1-yl-ethoxy)-14,19-dioxa-5,7,26-triaza-tetracyclo[19.3.1.1(2,6).1(8,12)]heptacosa-1(25),2(26),3,5,8,10,12(27),16,21,23-decaene hydrochloride]
Solid Form Comment [1, 7]: Group 3 | decomposition / degradation temperature in TGA ([2]; hydrochloride): around 240 °C | TGA weight loss before degradation / melt with decomposition [2]: very little weight loss | solid form / XRPD pattern post GVS compared with before ([3]; hydrochloride): unchanged | GVS mass gain [3]: 1.6% | GVS mass lost on going to dryness ([3]; hydrochloride): 2.4%

Solid Form after maturation ([5]; 1,4-dioxane): Form A | Solid Form after maturation ([5]; 1-butanol): Form A | Solid Form after maturation ([5]; 1-pentanol): Form A | Solid Form after maturation ([5]; 1-propanol): Form A | Solid Form after maturation ([5]; 2-butanol): Form A | Solid Form after maturation ([5]; 2-methoxy ethanol): Form A | Solid Form after maturation ([5]; 3-methyl-1-butanol): Form A | solid forms identified after maturation ([5]; 27 different solvents, 4 h heat/cool cycles 50° C./r.t. for 24 h): only one solid form | Solid Form after maturation ([5]; Acetonitrile): Form A | Solid Form after maturation ([5]; Cyclohexane): Form A | Solid Form after maturation ([5]; DMSO): Form A | Solid Form after maturation ([5]; Dicloro-methane): Form A | Solid Form after maturation ([5]; Ethanol): Form A | Solid Form after maturation ([5]; Ethyl acetate): Form A | Solid Form after maturation ([5]; Heptane): Form A | Solid Form after maturation ([5]; IPA): Form A | Solid Form after maturation ([5]; Isobutyl acetate): Form A | Solid Form after maturation ([5]; Isopropyl acetate): Form A | Solid Form after maturation ([5]; Methyl isobutyl ketone): Form A | Solid Form after maturation ([5]; Methylethyl ketone): Form A | Solid Form after maturation ([5]; Nitromethane): Form A | Solid Form after maturation ([5]; Propyl acetate): Form A | Solid Form after maturation ([5]; TBME): Form A | Solid Form after maturation ([5]; Tetrahydro furan): Form A | Solid Form after maturation ([5]; Toluene): Form A | Solid Form after maturation ([5]; Water): Form A | Solid Form after maturation ([5]; acetone): Form A | Solid Form after maturation ([5]; methanol): Form A | change of crystalline pattern (XRPD) after stress ([4]; one week in humidity chamber at 60° C. and 96% RH): no changes are observed
Compound: C1=C/COCc2cc(ccc2OCCN2CCCC2)Nc2nccc(n2)-c2cccc(c2)COC/1 [citrate salt group A material, 11-(2-pyrrolidin-1-yl-ethoxy)-14,19-dioxa-5,7,26-triaza-tetracyclo[19.3.1.1(2,6).1(8,12)]heptacosa-1(25),2(26),3,5,8,10,12(27),16,21,23-decaene]

Solid Form Comment ([1]; citrate salt batches): Group A | decomposition / degradation temperature in TGA [2]: 180 °C | TGA weight loss before degradation / melt with decomposition [2]: no weight loss | solid form / XRPD pattern post GVS compared with before [3]: no change | GVS water taken up ([3]; between 0 and 90% RH): less than 0.8% | hygroscopicity ([3]; result in words): low hygroscopicity
Compound: C1=C/COCc2cc(ccc2OCCN2CCCC2)Nc2nccc(n2)-c2cccc(c2)COC/1 [Batch Citrate 1, 11-(2-pyrrolidin-1-yl-ethoxy)-14,19-dioxa-5,7,26-triaza-tetracyclo[19.3.1.1(2,6).1(8,12)]heptacosa-1(25),2(26),3,5,8,10,12(27),16,21,23-decaene]
change of X-ray diffraction pattern with temperature [6]: no change irrespective of the temperature

Compound: C1=CCOCc2cc(ccc2OCCN2CCCC2)Nc2nccc(n2)-c2cccc(c2)COC1.Cl [Batch HCl 5, 11-(2-pyrrolidin-1-yl-ethoxy)-14,19-dioxa-5,7,26-triaza-tetracyclo[19.3.1.1(2,6).1(8,12)]heptacosa-1(25),2(26),3,5,8,10,12(27),16,21,23-decaene hydrochloride]
Solid Form Comment [1, 7]: Group 2

Compound: C1=CCOCc2cc(ccc2OCCN2CCCC2)Nc2nccc(n2)-c2cccc(c2)COC1.Cl [Batch HCl 4, 11-(2-pyrrolidin-1-yl-ethoxy)-14,19-dioxa-5,7,26-triaza-tetracyclo[19.3.1.1(2,6).1(8,12)]heptacosa-1(25),2(26),3,5,8,10,12(27),16,21,23-decaene hydrochloride]
Solid Form Comment [1, 7]: Group 1 | TGA mass loss ([2]; between ambient and 108° C.): 6.5% | solid form / XRPD pattern post GVS compared with before ([3]; hydrochloride): unchanged | GVS mass gain [3]: 1.6% | GVS mass lost on going to dryness ([3]; hydrochloride): 2.8%

Compound: C1=CCOCc2cc(ccc2OCCN2CCCC2)Nc2nccc(n2)-c2cccc(c2)COC1.Cl [Batch HCl 3, 11-(2-pyrrolidin-1-yl-ethoxy)-14,19-dioxa-5,7,26-triaza-tetracyclo[19.3.1.1(2,6).1(8,12)]heptacosa-1(25),2(26),3,5,8,10,12(27),16,21,23-decaene hydrochloride]
Solid Form Comment [1, 7]: Group 1 + 3 + little amorphous | decomposition / degradation temperature in TGA [2]: 260 °C | total weight lost in the TGA [2]: 3.4% | another loss in TGA ([2]; at 165° C.): 1.97% | water lost in the first phase of the TGA ([2]; hydrochloride): 1.5% | equivalents of water corresponding to TGA weight loss ([2]; hydrochloride): 0.5 equivalents of water | equivalents of water by Karl-Fischer analysis (Karl-Fischer analysis): 1.1 equivalents | water content by Karl-Fischer analysis (Karl-Fischer analysis): 3.79%

Source: patent publication US9624242B2, “11-2(2-pyrrolidin-1-yl-ethoxy)-14,19-dioxa-5,7,26-triaza-tetracyclo[19.3.1.1(2,6).1(8,12)]heptacosa-1(25),2(26),3,5,8,10,12(27),16,21,23-decaene citrate salt” (CTI BIOPHARMA CORP., priority 2008, dated 2017)
